Laboratory results: patent publication US12502393B2, “Dual mode of action soluble guanylate cyclase activators and phosphodiesterase inhibitors and uses thereof” (TOPADUR PHARMA AG, priority 2018, dated 2025)
Where two headings read alike, the source gives them in different places.

Key:
[1] = molecular target: T1, recombinant human (rh) PDE5A (Homo sapiens, UniProt O76074); test: Phosphodiesterase-5 activity assay (radiometric SPA); type: biochemical; conditions: rhPDE5A1, 0.5 μM cGMP, 20 min at 37° C.
T1 construct: GST; purchased SIGMA E9034

[2] = Human plasma protein binding; type: in vitro ADME; conditions: for fraction unbound: human
Method: An aliquot of 200 μL of human plasma containing test compound was spiked into donor well (red chamber) of the insert. 350 μL of PBS was spiked into receiver well (white chamber) of the insert.
The samples were matrix equilibrated with opposite matrix (25 μL of plasma/buffer sample was matched with 25 μL of blank buffer/plasma). Matrix matched samples were precipitated with 200 μL of acetonitrile containing internal standard. Samples were vortexed at 1000 rpm for 5 min and centrifuged at 4000 rpm for 10 min. Supernatant was separated, diluted 2 fold with water and analysed in LC-MS/MS. (Table 2).

[3] = tested on: Human Trabecular Meshwork Cells; test: Cellular cGMP assay in human trabecular meshwork cells; type: cell-based; conditions: HTMC, 10 μM Riociguat; for Concentration (nM) for 3-fold or 2-fold* cGMP increase vs Baseline: 2-fold increase (values marked *); for Ratio Maximum cGMP increase vs Baseline: 5 mM GSH, incubation 2 h
Human Platelets = test: Total cGMP in human platelets; type: cell-based; conditions: for Ratio Maximum cGMP increase vs Baseline: 1 μM riociguat and 100 nM BAY 190954, incubation 2 h; for Concentration (nM) for 3-fold cGMP or 2-fold* increase vs Baseline: 2-fold increase (values marked *), 1 μM riociguat, 100 nM BAY 190954
Method: Effects of test and reference compounds on total cGMP in human platelets were investigated as described by Dunkern and Hatzelmann (Cell Signal. 17: 331-9, 2005) with modifications. Briefly, buffy coats (acquired form SRK Blutspende Zurich) were 4-fold diluted in 150 mM sodium chloride solution containing 0.9% sodium citrate and centrifuged at 200 g for 10 min. The resulting platelet-rich plasma was supplemented with a 1/10 volume of ACD solution (85 mM sodium citrate, 111 mM D-glucose, 71 mM citric acid, pH 4.4) and apyrase (Sigma AG) to a final concentration of 2 U/ml. After another centrifugation (1400 g, 10 min) the cellular pellet was resuspended in Ca2+/Mg2+-free Hepes-Tyrode buffer (134 mM NaCl, 12 mM NaHCO3, 2.9 mM KCl, 0.36 mM NaH2PO4, 5 mM HEPES, 5 mM glucose, 0.5% (w/v) bovine serum albumin, pH 7.4) and platelets were counted.
Platelets were used at 9×10^7 cells in 100 μl per well and after adding test and reference compounds the incubation volume was 200 μl per well in Hepes-Tyrode. Experiments in platelets were done in presence of 1 μM riociguat and 100 nM BAY 190954 (PDE2 inhibitor) (Lucerna Chem AG) and test/reference compounds were added after a preincubation time of 15 min. At the end of the incubation time (see below) the reaction was terminated by adding 20 μl of 2N HCl per well. Following a 20 sec on a plate shaker (300 rpm) the plate was left for 15 min and then centrifuged at 1000×g for 5 min. Supernatants were stored at −80° C.
cGMP was determined by a commercially available ELISA kit (Direct cGMP ELISA kit, Enzo Life Sciences AG, Lauren, Switzerland) with a lower detection limit of 0.08 pmol/ml using the acetylation protocol following manufacturer's instructions. Results are given as the means from at least two independent experiments each in triplicate.
To study concentration-dependent effects on total cGMP test and reference compounds were investigated from 0.1 nM to 1 μM in half-logarithmic steps with an incubation time of 2 h. To examine the time course the incubation times were (min) 10, 30, 60, 90, 120 at 1 μM of test or reference compound.
Compounds were diluted from stock solutions in DMSO. The final concentration of DMSO in all wells including the vehicle controls was 0.2% for human trabecular meshwork and rat aortic smooth muscle cells and 0.3% for platelets.
From time course experiments, the time to half of the maximum cGMP increase with 1 μM of test compound has been extrapolated (t0.5max).

[4] = read-out: % Unbound in human plasma
[5] = read-out: % Bound in human plasma (converted)

SMILES | IC50 [1] [pM] | % Bound in human plasma [2] [%] | fraction unbound [2, 4] | Concentration (nM) for 3-fold or 2-fold* cGMP increase vs Baseline [3] | Ratio Maximum cGMP increase vs Baseline [3] | Ratio Maximum cGMP increase vs Baseline (Human Platelets) | Concentration (nM) for 3-fold cGMP or 2-fold* increase vs Baseline (Human Platelets) | fraction unbound [2, 5]
CCCc1nc(C)c2c(=O)[nH]c(-c3cc(S(=O)(=O)N4CCC(C(O)(CCO)CCO[N+](=O)[O-])CC4)ccc3OCC)nn12 (stereo not drawn) [Compound 2g, 3-(1-((4-ethoxy-3-(5-methyl-4-oxo-7-propyl-3,4-dihydroimidazo[5,1-f][1,2,4]triazin-2-yl)phenyl)sulfonyl)piperidin-4-yl)-3,5-dihydroxypentyl nitrate] | 370 | 98.29 | 0.0171 | 22.2* nM | 109.1 | 183.5 |  | 
CCCc1nc(C)c2c(=O)[nH]c(-c3cc(S(=O)(=O)N4CCC(C(O)(CCO[N+](=O)[O-])CCO[N+](=O)[O-])CC4)ccc3OCC)nn12 [Compound 2h, 3-(1-((4-ethoxy-3-(5-methyl-4-oxo-7-propyl-3,4-dihydroimidazo[5,1-f][1,2,4]triazin-2-yl)phenyl)sulfonyl)piperidin-4-yl)-3-hydroxypentane-1,5-diyl dinitrate] | 1000 | 99.77 | 0.0023 |  |  | 171.3 |  | 
CCCc1nc(C)c2c(=O)[nH]c(-c3cc(S(=O)(=O)N4CCC(C(O)C(CO[N+](=O)[O-])CO[N+](=O)[O-])CC4)ccc3OCC)nn12 (stereo not drawn) [Compound 2i, 2-((1-((4-ethoxy-3-(5-methyl-4-oxo-7-propyl-3,4-dihydroimidazo[5,1-f][1,2,4]triazin-2-yl)phenyl)sulfonyl)piperidin-4-yl)(hydroxy)methyl)propane-1,3-diyl dinitrate] | 1500 | 99.99 | 0.0001 |  |  | 932.9 |  | 
CCCc1nc(C)c2c(=O)[nH]c(-c3cc(S(=O)(=O)N4CCC(CC(CO[N+](=O)[O-])CO[N+](=O)[O-])CC4)ccc3OCC)nn12 [Compound 2m, 2-((1-((4-ethoxy-3-(5-methyl-4-oxo-7-propyl-3,4-dihydroimidazo[5,1-f][1,2,4]triazin-2-yl)phenyl)sulfonyl)piperidin-4-yl)methyl)propane-1,3-diyl dinitrate] | 440 | 99.92 | 0.0008 |  |  | 262.3 |  | 
CCCc1nc(C)c2c(=O)[nH]c(-c3cc(S(=O)(=O)N4CCC(CC(CO)CO[N+](=O)[O-])CC4)ccc3OCC)nn12 (stereo not drawn) [Compound 2n, 3-(1-((4-ethoxy-3-(5-methyl-4-oxo-7-propyl-3,4-dihydroimidazo[5,1-f][1,2,4]triazin-2-yl)phenyl)sulfonyl)piperidin-4-yl)-2-(hydroxymethyl)propyl nitrate] | 470 | 99.48 | 0.0052 |  |  | 161.0 |  | 
CCCc1nc(C)c2c(=O)[nH]c(-c3cc(S(=O)(=O)N4CCC(CC(C)(CO[N+](=O)[O-])CO[N+](=O)[O-])CC4)ccc3OCC)nn12 [Compound 2o, 2-((1-((4-ethoxy-3-(5-methyl-4-oxo-7-propyl-3,4-dihydroimidazo[5,1-f][1,2,4]triazin-2-yl)phenyl)sulfonyl)piperidin-4-yl)methyl)-2-methylpropane-1,3-diyl dinitrate] | 520 | 99.95 | 0.0005 | 1.9* nM | 86.9 | 202.8 | 120* nM | 
CCCc1nc(C)c2c(=O)[nH]c(-c3cc(S(=O)(=O)N4CCC(CC(C)(CO)CO[N+](=O)[O-])CC4)ccc3OCC)nn12 (stereo not drawn) [Compound 2p, 3-(1-((4-ethoxy-3-(5-methyl-4-oxo-7-propyl-3,4-dihydroimidazo[5,1-f][1,2,4]triazin-2-yl)phenyl)sulfonyl)piperidin-4-yl)-2-(hydroxymethyl)-2-methylpropyl nitrate] | 110 | 99.66 | 0.0034 | 1.4* nM | 46.1 | 204.1 | 102* nM | 
CCCc1nn(C)c2c(=O)[nH]c(-c3cc(S(=O)(=O)N4CCC(C(O)C(CO)CO)CC4)ccc3OCC)nc12 (stereo not drawn) [Compound 22, 5-(5-((4-(1,3-dihydroxy-2-(hydroxymethyl)propyl)piperidin-1-yl)sulfonyl)-2-ethoxyphenyl)-1-methyl-3-propyl-1,6-dihydro-7H-pyrazolo[4,3-d]pyrimidin-7-one] | 8500 |  | 0.036 |  |  |  |  | 0.036
CCCc1nc(C)c2c(=O)[nH]c(-c3cc(S(=O)(=O)N4CCC(C(O)(CCO)CCO)CC4)ccc3OCC)nn12 [Compound 28, 2-(2-ethoxy-5-((4-(1,3,5-trihydroxypentan-3-yl)piperidin-1-yl)sulfonyl)phenyl)-5-methyl-7-propylimidazo[5,1-f][1,2,4]triazin-4(3H)-one] | 190 |  | 0.069 |  |  |  |  | 0.069
CCCc1nc(C)c2c(=O)[nH]c(-c3cc(S(=O)(=O)N4CCC(CC(CO)CO)CC4)ccc3OCC)nn12 [Compound 43, 2-(2-ethoxy-5-(4-(3-hydroxy-2-(hydroxymethyl)propyl)piperidin-1-ylsulfonyl)phenyl)-5-methyl-7-propylimidazo[1,5-f][1,2,4]triazin-4(3H)-one] | 130 |  | 0.022 |  |  | 28.5 |  | 0.022
CCCc1nc(C)c2c(=O)[nH]c(-c3cc(S(=O)(=O)N4CCC(CC(C)(CO)CO)CC4)ccc3OCC)nn12 [Compound 47, 2-(2-ethoxy-5-((4-(3-hydroxy-2-(hydroxymethyl)-2-methylpropyl)piperidin-1-yl)sulfonyl)phenyl)-5-methyl-7-propylimidazo[5,1-f][1,2,4]triazin-4(3H)-one] | 22 |  |  |  |  | 39.0 |  | 
